The results in this text go back to patent publication US20070037783A1, “Migrastatin analogs and uses thereof” (priority 2003, published 2007).

Where two headings read alike, the source gives them in different places.

Series [1] relates to adherent cells (e.g. KYSE-520 cells). As to the kind of experiment: Wound healing (scratch) assay (preliminary, Table 2). To be noted: 28 to 30 h, compared to 100 μM Migrastatin, tested 200, 100, 50, 25, 10 μM. In kind it is cell-based. Here is the method:
2. Wound Healing Assay (Table 2)
The wound healing assay was performed based on the method described by Nakae et al. (Nakae et al., J. Antibiotics (2000), 53, 1130-1136). Briefly, adherent cells were grown in a suitable media to confluence (e.g. KYSE-520 cells in RPMI-1640 with 10% FBS). Cells were starved for 24 h in serum free media. A scratch (ca. 0.5 mm) was applied and the cell layer was washed twice with PBS after removal of the media. Fresh, serum free media with the test compound at the desired concentration was added and the cells were incubated for 28 to 30 h at 37° C., 5% CO2. The scratch size was compared to that observed for cells exposed to 100 μM Migrastatin. Test compounds associated with a scratch size equal to or larger than that observed for cells exposed to 100 μM Migrastatin were deemed to have cell migration inhibitory activity at least equal to Migrastatin.

The next series deals with HUVEC. As to the kind of experiment: Tube formation assay (preliminary, Table 1). In kind it is cell-based, human. To be noted: minimal concentration causing definite disturbance of tube network, 16-18 h, tested 200, 100, 50, 25, 10 μM. Here is the method: 1. Tube Formation Assay (Table 1):
A protocol was designed based on the instructions from the provider (BD Bioscience, San Jose, Calif.). Briefly, wells of a 48 well culture dish were covert with 150 μL matrigel and the matrigel was gelatinized for 30 min at 37° C. A 80-90% confluent HUVEC (BD Bioscience, San Jose, Calif.) culture was trypsin treated, the detached cells were collected by centrifugation and resuspended in EGM-2 media (BD Bioscience, San Jose, Calif.). Cell concentration was adjusted to 100.000 cells/mL. 400 μL of the cell suspension were filled in the matrigel coated wells, and a solution of the inhibitor was added to the intended final concentration. The plates were incubated at 37° C. with 5% CO2 for 16-18 h. Media was removed, and the matrigel surface was washed twice with 500 μL PBS before cells were labeled with 250 μL 8 μM Calcein AM (Pierce, Rockford, Ill.) in PBS for 30 min at 37° C. After two additional washing steps (500 μL PBS) cells were visualized under an inverted microscope. Fluorescence was excited at 488 nm and recorded at 538 nm. The minimum effect concentration was defined as the minimal inhibitor concentration that caused a definite disturbance of the complexity of the formed tube network.

Series [2] has as its system 4T1 mouse breast tumor cells. As to the kind of experiment: Boyden chamber cell migration assay with 4T1 tumor cells. In kind it is cell-based. To be noted: for IC50: chamber cell migration, 6-8 h, average of three experiments, read-out: IC50 (4T1 tumor cells). Here is the method: The biological evaluation of the compounds (in terms of their ability to inhibit cell migration) was accomplished in a Boyden chamber cell migration assay. In this assay, mouse breast tumor cells (4T1 cells) or endothelial cells (HUVECs) are seeded on the upper chamber of a transwell insert. Growth factor-containing serum is added to the lower chamber.
Chamber Cell Migration Assay (Tables 4 and 6): Cell migrations were assayed with Boyden chambers [8.0 μm pore size, polyethylene terephthalate membrane, FALCON cell culture insert (Becton-Dickinson)]. 4T1 mouse breast tumor cells or HUVECs were trypsinized and counted. 300 μl of 5-10×10^4 cells in serum-free medium was added to the upper chamber and 500 μl of medium with 10% fetal bovine serum (FBS) was added to the lower chamber. […] Cells on the inside of the transwell inserts were removed with a cotton swab, and cells on the underside of the insert were fixed and stained. Photographs of three random regions were taken and the number of cells was counted to calculate the average number of cells that have transmigrated.

For series [3], the system named is 4T1 tumor lung metastasis. As to the kind of experiment: 4T1 tumor lung metastasis in syngeneic mice (6-thioguanine clonogenic assay). In kind it is in vivo, BALB/c mice. Particulars: for lung metastasis colonies: lungs Day 28, mean and standard deviation. The text has this: Inhibition of metastasis of mouse breast tumors by migrastatin alogs in mice. 4T1 mouse breast tumor cell line was isolated from a single spontaneously arising mammary tumor from a BALB/BfC3H mouse (MMTV+).^62 The 4T1 tumor closely mimics human breast cancer in its anatomical site, immunogenecity, growth characteristics, and metastatic properties.^63 From the mammary gland, 4T1 tumor spontaneously metastasizes to a variety of target organs including the lung, bone, brain, and liver through primarily a hematogenous rout.^64
To assess the efficacy of therapeutic application of migrastatin analogs in the 4T1 murine mammary carcinoma models, we administered migrastatin analogs (macroketone and macrolactam) to BALB/c mice carrying the 4T1 tumors.
Female BALB/c mice (6-8 week old) were purchased from the Jackson Laboratory (Bar Harbor, Me.). All mice were housed at the Weill Medical College of Cornell University Animal Facilities in accordance with the Principles of Animal Care (NIH publication no. 85-23, revised 1985). 4T1 tumor cells (1×10^5) were injected subcutaneously into the abdominal mammary gland area of mice in 0.1 ml of a single-cell suspension in phosphate buffered saline (PBS) on Day 0. The dosage of tumor implantation was empirically determined to give rise to tumor of ˜10 mm in diameter in untreated wild type mice in 21-23 days. On Day 7, when the tumors averaged in size ˜4-5 mm in diameter, migrastatin analogs or control PBS saline were given every day by intraperitoneal injection at 10 mg/kg or 20 mg/kg per mouse until Day 25. On Day 28, the mice were sacrificed. This regiment of migrastatin analogs was well tolerated with no signs of overt toxicity. Every group included five mice. Primary tumors were measured using electronic calipers on the day when the mice were sacrificed. Tumor size was the square root of the product of two perpendicular diameters. Numbers of metastatic 4T1 cells in lung were determined by the clonogenic assay.^63 In brief, lungs were removed from each mouse on Day 28, finely minced and digested in 5 ml of enzyme cocktail containing 1× PBS and 1 mg/ml collagenase type IV for 2 hours at 37° C. on a platform rocker. After incubation, samples were filtered through 70 uM nylon cell strainers and washed twice with PBS. Resulting cells were suspended and plated serially diluted in 10 cm tissue culture dishes in medium RPMI1640 containing 60 uM thioguanine for clonogenic growth. 6-Thioguanine-resistant tumor cells formed foci after 14 days, at which time they were fixed with methanol and stained with 0.03% methylene blue for counting.
Treatment 4T1 tumor lung metaotmis in smgencie mice with Kigrastatin analogs (See, FIG. 4). 4T1 tumor cells (10^5) were injected s.c. in the abdominal mammary gland with 0.1 ml of a single-cell suspension. Macroketone or macrolactam at 10 mg/kg or 20 mg/kg was given i.p. on Day 7 when the tumor size was about 5 mm in diameter, and everyday until Day 25. On Day 28, the mice were sacrificed. Each group comprised five mice. Lung metastasis was measured by the 6-thiogunine clonogenic assay. The mean and standard deviation are presented. In the control group (daily PBS injection), there were 61300±18900 colonies.

For series [4], the system named is HUVECs (human umbilical vein endothelial cells). As to the kind of experiment: Boyden chamber cell migration assay with HUVECs. Particulars: chamber cell migration; average of three experiments; read-out: IC50 (HUVEC). In kind it is cell-based. The method, then: Chamber Cell Migration Assay (Tables 4 and 6): Cell migrations were assayed with Boyden chambers [8.0 μm pore size, polyethylene terephthalate membrane, FALCON cell culture insert (Becton-Dickinson)]. 4T1 mouse breast tumor cells or HUVECs were trypsinized and counted. 300 μl of 5-10×10^4 cells in serum-free medium was added to the upper chamber and 500 μl of medium with 10% fetal bovine serum (FBS) was added to the lower chamber. The transwells were incubated for 6-8 h at 37° C. with different concentrations of chemical compound in both upper and lower chamber. Cells on the inside of the transwell inserts were removed with a cotton swab, and cells on the underside of the insert were fixed and stained. Photographs of three random regions were taken and the number of cells was counted to calculate the average number of cells that have transmigrated.

The conditions of series [5]: rcm bond, Grubbs-II, toluene, 111.0 °C, 0.25 h.
Series [6] in a line: Mouse plasma stability study (HPLC). In kind it is in vitro ADME. The method, then: Mouse Plasma Stability Studies (Table 5): HPLC conditions: The sample is injected and separated using an Inertsil ODS3 6u 3×150 mm column with a mobile phase of MeCN and water (50% for migrastatin) at a flow of 0.4 mL/min, monitored at 220 nm at 0.02 AUFS (the retention time for migrastatin is ca. 4 min, the identity of this peak was confirmed by mass spectral analysis). Incubation and sample preparation conditions: A solution (ca. 30 mM) of chemical compound (Table 5) in DMSO is prepared. 2 μL of the solution is added to a mixture containing 200 μL of mouse plasma and 800 μL of PBS. The resulting solution is put into a water bath at 37° C., and 100 μL of sample is withdrawn at 10, 20, 30, 45, and 60 min. The precipitate is removed by centrifugation and 20 μL of the supernatant is injected onto the HPLC.

For the compound N-Methyl-migrastatin, the Minimum effect concentration was 100 µM in series [1] and 200 µM with HUVEC.
In the case of `CO[C@H]1/C=C/CCCCC(=NO)CC/C(C)=C\[C@@H](C)[C@@H]1O` [macrooxime (72), Macrooxime], the IC50 in series [2] is 2.3 µM.
With `CO[C@H]1/C=C/CCCCC(C)(O)CC/C(C)=C\[C@@H](C)[C@@H]1O` (some centres unmarked) [macrocyclic tertiary alcohol (70), Marocyclic Tertiary Alcohol], the IC50 in series [2] stood at 3.1 µM.
With `COC1C=CCCCCC(=O)NCC(C)=CC(C)C1O` (centres unmarked) [macrolactam (55), Macrolactam], the “inhibition of lung metastasis” value in series [3] (10 mg/kg i.p. daily Day 7-25) and in series [3] (20 mg/kg i.p. daily Day 7-25) was roughly 91% throughout. For the same compound, the lung metastasis colonies in series [3] (10 mg/kg i.p. daily Day 7-25) came to 5333±1778 colonies; in series [3] (20 mg/kg i.p. daily Day 7-25), 5675±6263 colonies. For the same compound, the IC50 was determined as 0.255 µM in series [2] and 18 µM in series [4].
On to `CN1c2ccccc2C(=O)N2CCc3c([nH]c4ccccc34)[C@H]21` [evodiamine, reference compound], for which the IC50 in series [2] (Mus musculus) amounted to 0.315 µM.
With `CO[C@H]1C=CCCCCC(=O)O[C@H]([C@H](C)C(=O)CCCC2CC(=O)NC(=O)C2)/C(C)=C\[C@@H](C)[C@@H]1O[Si](C)(C)C(C)(C)C`, the ring closure, yield of all isomers in series [5] (from C=CCCCCC(=O)O[C@@H](/C(C)=C\[C@@H](C)[C@H](O[Si](C)(C)C(C)(C)C)[C@H](C=C)OC)[C@H](C)C(=O)CCCC1CC(=O)NC(=O)C1, 0.48 mM) was 79%.
As to `COC1C=CCCC=CC(=O)OCC(C)=CC(C)C1O` (centres unmarked) [migrastatin core (45), Migrastatin Core], the “stability (t1/2, mouse plasma)” value in series [6] (mouse plasma/PBS, 37° C., sampled up to 60 min) is listed as 20 min. Further, the “stability (mouse plasma), in words” value in series [6] (stable = intensity of HPLC signal unchanged over 60 min of incubation) was “hydrolyzed rapidly”. Besides, the IC50 in series [4] turned out to be 0.15 µM.
Consider “N-Methyl-2,3-Dihydromigrastatin [N-methyl-2,3-dihydromigrastatin (42)]”, for which the IC50 in series [2] worked out at 7 µM.
On to `CO[C@H]1/C=C/CCCCC(O)(C(F)(F)F)CC/C(C)=C\[C@@H](C)[C@@H]1O` (some centres unmarked) [macrocyclic CF3-alcohol (71), Macrocyclic CF3-Alcohol], for which the “effect on 4T1 tumor cell migration in the chamber assay, in words” value in series [2] (chamber assay) is “displays the same activity profile as macroketone 60”. The IC50 in series [2] was determined as 0.101 µM.
In the case of `CO[C@H]1/C=C/CCCCC(O)CC/C(C)=C\[C@@H](C)[C@@H]1O` (some centres unmarked) [macrocyclic secondary alcohol (69), Macrocyclic Secondary Alcohol], the IC50 in series [2] is 8.9 µM.
As to `CO[C@@H](/C=C/CCCCC(=O)O)[C@@H](O)[C@H](C)/C=C(/C)CO` [hydrolyzed core (51), Hydrolyzed Core], in series [2], the IC50 came out at 0.378 µM.
For `COC1C=CCCCCC(=O)OC(C(C)C(=O)CCCC2CC(=O)NC(=O)C2)C(C)=CC(C)C1O` (centres unmarked) [2,3-dihydromigrastatin (41), 2,3-Dihydromigrastatin], the figures for the Minimum effect concentration (in series [1]; in the series with HUVEC) were 25 µM and 50 µM, respectively. In addition, the IC50 in series [2] was 10 µM.
In turn, `CO[C@H]1C=CCCCCC(=O)NC/C(C)=C\[C@@H](C)[C@@H]1O[Si](C)(C)C(C)(C)C` had a ring closure, yield of all isomers in series [5] (from C=CCCCCC(=O)NC/C(C)=C\[C@@H](C)[C@H](O[Si](C)(C)C(C)(C)C)[C@H](C=C)OC, 0.709 mM) of 60%.
With `CO[C@H]1/C=C/CCCCC(=O)OC/C(C)=C\[C@@H](C)[C@@H]1OC(C)=O` [acetylated macrolactone (49), Acetylated Macrolactone], the IC50 in series [2] was found to be 0.192 µM.
In the case of `CO[C@H]1C=CCC/C=C/C(=O)O[C@H]([C@H](C)C(=O)CCCC2CC(=O)NC(=O)C2)/C(C)=C\[C@@H](C)[C@@H]1O[Si](C)(C)C(C)(C)C`, the ring closure, yield of all isomers in series [5] (from C=CCC/C=C/C(=O)O[C@@H](/C(C)=C\[C@@H](C)[C@H](O[Si](C)(C)C(C)(C)C)[C@H](C=C)OC)[C@H](C)C(=O)CCCC1CC(=O)NC(=O)C1, 0.46 mM) amounted to 69%.
